Test results: patent US20190117655A1, “Treatment of Biliary Duct Cancer” (ASLAN Pharmaceuticals PTE LTD, priority 2015, published 2019)
Read-outs that look alike come from different tables or passages of the source.

Key:
[1] = test system: advanced or metastatic biliary tract cancer; settings: capecitabine monotherapy, similar populations; cited from earlier work
[2] = Combination of Varlitinib and Herceptin versus either alone; settings: Varlitinib in combination with Herceptin (trastuzumab)
Description: In one embodiment the compound of formula (I), such as Varlitinib, is employed in combination with at least one further HER inhibitor, for example a combination of Varlitinib and Herceptin (trastuzumab) and/or pertuzumab.

cholangiocarcinoma = test: Second line monotherapy trial in cholangiocarcinoma patients, CA19-9 marker; format: in vivo, human
Description: CA19-9 is a marker employed in the management of cholangiocarcinoma.

[3] = test system: stage IV cholangiocarcinoma; test: Example 1: person, stage IV EGFR positive cholangiocarcinoma, Varlitinib monotherapy; format: in vivo, human
[4] = test system: extra-hepatic cholangiocarcinoma; test: Example 2: person, stage IV extra-hepatic cholangiocarcinoma, Varlitinib with cisplatin/capecitabine then monotherapy; format: in vivo, human
Description: A person, stage IV, extra-hepatic cholangiocarcinoma, prior treatment: • Whipple • Radiotherapy • Gemzar/cisplatin for 6 months For the first 6 cycles, the patient received Varlitinib 400 mg BID continuously with cisplatin (80 mg/m^2 every 3 weeks) and capecitabine (1000 mg/m2 BID, 2 weeks on, 1 week off). […] In summary, the patient received varlitinib with chemo for 6 cycles and varlitinib monotherapy for another 4 cycles (3 weeks per cycle).

[5] = test system: stage IV cholangiocarcinoma; test: Example 3: person, stage IV cholangiocarcinoma, Varlitinib with cisplatin/capecitabine; format: in vivo, human; settings: Varlitinib 400 mg bi-daily, cisplatin and capecitabine
Description: A person with stage IV cholangiocarcinoma (3 lesions) had progressive disease following treatment with: • radiotherapy, and • gemcitabine (Gemzar®) and cisplatin—6 months. […] The cisplatin and capecitabine regime was cisplatin 80 mg/m^2 IV infusion and capecitabine 1000 mg/m^2 orally twice daily for 14 days every 3 weeks.

[6] = test system: stage IV cholangiocarcinoma; test: Example 4: person, stage IV cholangiocarcinoma, Varlitinib 500 mg with cisplatin/capecitabine; format: in vivo, human; settings: after treatment cycle 2; Varlitinib 500 mg bi-daily, cisplatin and capecitabine
Description: A person with stage IV cholangiocarcinoma had progressive disease following treatment with radiotherapy and bi-weekly 5-FU. […] The cisplatin and capecitabine regime was cisplatin 80 mg/m^2 IV infusion and capecitabine 1000 mg/m^2 orally twice daily for 14 days every 3 weeks.

[7] = test system: stage IV cholangiocarcinoma and metastatic lymphadenopathy; test: Example 5: person, stage IV cholangiocarcinoma and metastatic lymphadenopathy, Varlitinib with cisplatin/5-FU; format: in vivo, human; settings: 300 mg BID Varlitinib with cisplatin/5-FU
Description: A person was diagnosed with stage IV cholangiocarcinoma and metastatic lymphadenopathy in January 2016. No prior surgery or treatment was given before initiating first line treatment of 300 mg BID Varlitinib combined with […]/5-FU, 28-day treatment cycle. Date of the first response 5 Mar. 2016, tumor C2 was reduced by 16%. Last response tumor C4 was reduced by 13% (17 May 2016).

[8] = test system: intrahepatic bile duct cholangiocarcinoma; test: Example 6: person, intrahepatic bile duct cholangiocarcinoma, Varlitinib with FOLFOX then monotherapy; format: in vivo, human; settings: 9 cycles Varlitinib 400 mg reduced to 300 mg BID with FOLFOX, then 7 cycles monotherapy
Description: A person diagnosed in 2013 with intrahepatic bile duct cholangiocarcinoma, had received surgery in the form of left hemihepatectomy in 15 Jul. 2013. Prior therapies were gemcitabine and cisplatin (in the period 14 Aug. 2013 to 8 Jan. 2014) and repeated between 13 May 2015 and 1 Jul. 2015. With this treatment the status was progressive disease. The patient was given 9 cycles of a combination of Varlitinib 400 mg reduced to 300 mg BID and FOLFOX. This was followed with 7 cycles of Varlitinib monotherapy.

[9] = test system: stage IV cholangiocarcinoma; test: Example 7: person, stage IV cholangiocarcinoma, Varlitinib with cisplatin/5-FU then monotherapy; format: in vivo, human
Description: A person with stage IV cholangiocarcinoma newly diagnosed in 2014 received surgery (percutaneous […] cholangial drainage and transcatheter […] embolization), followed by adjuvant treatment of Varlitinib 400 mg BID combined with cisplatin s/5-FU 28-day cycle. After cycle 6 (14 Jul. 2015), only 400 mg BID Varlitinib was taken. Patient completed 10 cycles of monotherapy. At Cycle 11 Day 1, dose was reduced to 300 mg BID alternate days. […] 2015. Progressive disease observed in cycle 16 of monotherapy 12 Apr. 2016.

[10] = test system: intrahepatic cholangiocarcinoma, stage IV; test: Example 8: person, stage IV intrahepatic cholangiocarcinoma, Varlitinib with mFOLFOX6 then monotherapy (ASLAN001-002SG); format: in vivo, human; settings: after cycle 18
Description: They received left hemihepatectomy followed by 6 cycles of adjuvant gemcitabine and cisplatin.

[11] = test system: advanced or metastatic biliary tract cancer; test: Example 10: Phase 2A single arm study of varlitinib plus capecitabine in Chinese patients (NCT03231176); format: in vivo, human; settings: Varlitinib 300 mg BID plus capecitabine 1000 mg/m^2 BID 2 weeks on, 1 week off; ongoing study
Description: This study is to assess the efficacy of varlitinib (300 mg twice daily in a 21-day cycle) plus capecitabine (1,000 mg/m^2 twice daily for 2 weeks followed by a 7-day rest period) in patients with advanced or metastatic BTC.
Primary Objective: • To assess the efficacy of varlitinib plus capecitabine in patients with advanced or metastatic biliary tract cancer who progressed on first line of systemic therapy as measured by Objective Response Rate (ORR) based on RECIST v1.1.
Secondary Objectives: • To evaluate the efficacy of varlitinib plus capecitabine, as measured by duration of confirmed response (DoR), progression-free survival (PFS), overall survival (OS) and disease control rate (DCR) • To assess the safety and tolerability of varlitinib when combined with capecitabine
A phase 2A, single arm, multicentre study of varlitinib plus capecitabine in Chinese patients with advanced or metastatic biliary tract cancer who progressed on at least 1 line of systemic therapy.
The Study duration is divided into 3 different stages.
• Have histologically or cytologically confirmed advanced (unresectable) or metastatic BTC, including intrahepatic or extrahepatic CCA, gallbladder cancer and carcinoma of Ampulla of Vater. […]

[12] = test system: treatment naïve advanced or metastatic biliary tract cancer (BTC); format: in vivo; settings: for Median progression-free survival (PFS): at data cut-off
Description: The primary objectives for the phase Ib study are to determine the maximum tolerated dose (MTD) and to characterize the safety profile of varlitinib when given with gem/cis. Secondary objectives include evaluation of preliminary efficacy of the study regimen and to evaluate the pharmacokinetics of varlitinib, and any circulating metabolites. A modified 3+3+3 escalation design was used, with 2 varlitinib dose levels (200 and 300 mg twice daily) combined with cisplatin (25 mg/m^2, IV for 2 hours), followed by Gemcitabine (1000 mg/m^2, 30-minute infusion) on Day 1 and Day 8 in a 3 weeks cycle.

gastric tumours = settings: 500 mg orally BID monotherapy 28 days, gastric tumours co-expressing EGFR and HER2 or HER2 amplified, cited from earlier work
[13] = after treatment cycle 6, Varlitinib 400 mg bi-daily monotherapy
[14] = Cohort of 200 mg BID, with gem/cis
[15] = Cohort of 300 mg BID, with gem/cis

CCCCCOC(=O)Nc1nc(=O)n([C@@H]2O[C@H](C)[C@@H](O)[C@H]2O)cc1F [capecitabine]
Historical response rate, ORR [1]: 6-8%

C[C@@H]1COC(Nc2ccc3ncnc(Nc4ccc(OCc5nccs5)c(Cl)c4)c3c2)=N1 [Varlitinib, (R)—N4-[3-Chloro-4-(thiazol-2-ylmethoxy)-phenyl]-N6-(4-methyl-4,5,-dihydro-oxazol-2-yl)-quinazoline-4,6-diamine]
Therapeutic activity of combination versus either entity alone [2]: more therapeutic activity than either entity alone
Reduction in CA19-9 (cholangiocarcinoma; one patient, within one month of initiating Varlitinib): 90%
CA19-9 levels (cholangiocarcinoma; second line Varlitinib monotherapy, cholangiocarcinoma patients): significant reduction
Decrease in size of liver tumours [3, 13]: up to 23%
Tumour marker CA 19-9 after treatment [3, 13]: ~250 U/ml
Tumour marker CA 19-9, starting level ([3]; level from which the marker fell): ~900 U/ml
Duration of partial remission ([4]; 6 cycles with chemo then monotherapy): 24 weeks
Reduction in tumour size ([4]; end of cycle 6, Varlitinib 400 mg BID with cisplatin 80 mg/m^2 and capecitabine 1000 mg/m2 BID): 85.77%
Reduction in tumour size ([4]; end of cycle 8, varlitinib monotherapy after cycle 6): 87%
Disease status by RECIST ([4]; end of cycle 10, on varlitinib monotherapy): disease progression
Tolerability [5]: well tolerated
Response ([5]; after treatment cycle 6): 85.77%
Dose limiting toxicity ([5]; first two treatment cycles): No dose limiting toxicity was observed
Response [6]: 4%
Current disease status [7]: stable disease
Tumor reduction, first response ([7]; C2, first line): 16%
Tumor reduction, last response ([7]; C4, first line): 13%
Patient status [8]: partial response
Reduction in tumor size [8]: 50%
Cycle of treatment in which first response was observed ([9]; Varlitinib 400 mg BID with cisplatin/5-FU, 28-day cycle): 2 cycle
Cycle in which progressive disease was observed ([9]; Varlitinib monotherapy after cycle 6): 16 cycle
Disease control ([9]; varlitinib monotherapy after 6 cycles of varlitinib with cisplatin/5-FU): remarkable disease control
Reduction in tumor size, best response from baseline ([10]; 9 cycles Varlitinib 400 mg BID with mFOLFOX6, then 9 cycles monotherapy): 53%
Tumor assessment status [10]: partial response
Safety and tolerability [11]: safe and tolerated without any unexpected adverse events
Median progression-free survival (PFS) ([12]; 200 mg cohort, with gem/cis): 238 days
Median progression-free survival (PFS) ([12]; 300 mg cohort, with gem/cis): not reached
DCR overview: Complete Response, patients ([12]; All, with gem/cis): 0
DCR overview: Non-responders, patients ([12]; All, with gem/cis): 4
DCR overview: PD, patients ([12]; All, with gem/cis): 0
DCR overview: Partial Response, patients ([12]; All, with gem/cis): 7
DCR overview: Responders, patients ([12]; All, with gem/cis): 17
DCR overview: Responders, share of evaluable patients ([12]; All, with gem/cis): (81.0%)
DCR overview: SD (≤12 weeks), patients ([12]; All, with gem/cis): 2
DCR overview: SD (≥12 weeks), patients ([12]; All, with gem/cis): 10
ORR overview: Complete Response, patients ([12]; All, with gem/cis): 0
ORR overview: PD, patients ([12]; All, with gem/cis): 0
ORR overview: Partial Response, patients ([12]; All, with gem/cis): 7
ORR overview: Partial Response, share of evaluable patients ([12]; All, with gem/cis): (33.3%)
ORR overview: SD (≥6 weeks), patients ([12]; All, with gem/cis): 12
DCR overview: Complete Response, patients [12, 14]: 0
DCR overview: Non-responders, patients [12, 14]: 1
DCR overview: PD, patients [12, 14]: 0
DCR overview: Partial Response, patients [12, 14]: 4
DCR overview: Responders, patients [12, 14]: 10
DCR overview: Responders, share of evaluable patients [12, 14]: (90.9%)
DCR overview: SD (≤12 weeks), patients [12, 14]: 1
DCR overview: SD (≥12 weeks), patients [12, 14]: 6
ORR overview: Complete Response, patients [12, 14]: 0
ORR overview: PD, patients [12, 14]: 0
ORR overview: Partial Response, patients [12, 14]: 4
ORR overview: Partial Response, share of evaluable patients [12, 14]: (36.4%)
ORR overview: SD (≥6 weeks), patients [12, 14]: 7
DCR overview: Complete Response, patients [12, 15]: 0
DCR overview: Non-responders, patients [12, 15]: 3
DCR overview: PD, patients [12, 15]: 0
DCR overview: Partial Response, patients [12, 15]: 3
DCR overview: Responders, patients [12, 15]: 7
DCR overview: Responders, share of evaluable patients [12, 15]: (70.0%)
DCR overview: SD (≤12 weeks), patients [12, 15]: 1
DCR overview: SD (≥12 weeks), patients [12, 15]: 4
ORR overview: Complete Response, patients [12, 15]: 0
ORR overview: PD, patients [12, 15]: 0
ORR overview: Partial Response, patients [12, 15]: 3
ORR overview: Partial Response, share of evaluable patients [12, 15]: (30%)
ORR overview: SD (≥6 weeks), patients [12, 15]: 5
Antitumor activity ([12]; both 200 mg and 300 mg cohorts, Varlitinib plus gem/cis): Antitumor activity was observed
Patients with partial response per RECIST v1.1 ([12]; both cohorts, with gem/cis): 7 patients
Patients with stable disease more than 12 weeks ([12]; both cohorts, with gem/cis): 10 patients
All-grade adverse event: anaemia ([12]; human, in vivo): 33%
All-grade adverse event: decreased appetite ([12]; human, in vivo): 38%
All-grade adverse event: diarrhoea ([12]; human, in vivo): 38%
All-grade adverse event: nausea ([12]; human, in vivo): 38%
All-grade adverse event: neutrophil decreased ([12]; human, in vivo): 38%
All-grade adverse event: platelet decreased ([12]; human, in vivo): 52%
Dose limiting toxicities observed, number of patients ([12]; human, in vivo): 3 patients
Grade ≥3 adverse event: anaemia ([12]; human, in vivo): 19%
Grade ≥3 adverse event: neutrophil decreased ([12]; human, in vivo): 33%
Grade ≥3 adverse event: platelet decreased ([12]; human, in vivo): 29%
Disease control rate ([12]; with gem/cis): 81.0%
Signs of clinical activity: signalling pathways responsible for cell proliferation (gastric tumours; biopsies before/after): downregulation of signalling pathways responsible for cell proliferation
Signs of clinical activity: cell survival and cell proliferation in gastric tumours (gastric tumours): reduction in cell survival and cell proliferation
